How the values were obtained:
[1] = molecular target: T1, cytoplasmic domain of the human CSF-1R (Homo sapiens, UniProt P07333); assay: In vitro kinase assay for CSF-1R (AlphaScreen); assay type: biochemical; conditions: tested at about 1 μM
T1 construct: Recombinant protein corresponding to the cytoplasmic domain of the human CSF-1R; purchased Invitrogen Corporation, Carlsbad, Calif; U.S.A. PV3249
T1 sequence (P07333 539-972 limits assumed): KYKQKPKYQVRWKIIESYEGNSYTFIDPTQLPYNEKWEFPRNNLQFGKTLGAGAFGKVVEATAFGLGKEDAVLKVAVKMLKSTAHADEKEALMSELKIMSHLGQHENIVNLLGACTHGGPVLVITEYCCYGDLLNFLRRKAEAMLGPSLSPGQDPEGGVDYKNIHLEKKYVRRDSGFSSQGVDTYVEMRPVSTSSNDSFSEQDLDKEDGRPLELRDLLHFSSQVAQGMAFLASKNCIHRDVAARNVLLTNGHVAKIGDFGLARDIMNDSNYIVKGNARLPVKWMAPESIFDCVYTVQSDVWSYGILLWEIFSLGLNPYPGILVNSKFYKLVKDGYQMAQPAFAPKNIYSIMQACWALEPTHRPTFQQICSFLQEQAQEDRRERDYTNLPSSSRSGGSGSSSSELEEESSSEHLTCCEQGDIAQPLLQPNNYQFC
Method: The kinase activity of various protein tyrosine kinases can be measured by providing ATP and a suitable peptide or protein tyrosine-containing substrate, and assaying the transfer of phosphate moiety to the tyrosine residue. Recombinant protein corresponding to the cytoplasmic domain of the human CSF-1R was purchased from Invitrogen Corporation, Carlsbad, Calif. U.S.A. (#PV3249). For each assay, test compounds were serially diluted, starting at 25 μM with 3 fold dilutions, in DMSO in 384 well plates then mixed with an appropriate kinase reaction buffer consisting of 50 mM Hepes, 5 mM MgCl2, 10 mM MnCl2, 0.1% BSA, pH 7.5, 1.0 mM dithiothreitol, 0.01% Tween 80 plus […]. Kinase protein and an appropriate biotinylated peptide substrate at 50 nM were added to give a final volume of 20 μL, reactions were incubated for 2 hours at room temperature and stopped by the addition of 10 μL of 45 mM EDTA, 50 mM Hepes pH 7.5. Added to the stopped reaction mix was 30 μL of PT66 Alphascreen beads (Perkin Elmer, Boston, Mass., U.S.A.). The reaction was incubated overnight and read on the Envision (Perkin Elmer). Phosphorylated peptide product was measured with the AlphaScreen system (Perkin Elmer) using acceptor beads coated with anti-phosphotyrosine antibody PT66 and donor beads coated with streptavidin that emit a fluorescent signal at the 520-620 nm emission wave length if in close proximity. The concentration of each compound for 50% inhibition (IC50) was calculated by non-linear regression using XL Fit data analysis software.
CSF-1R kinase was assayed in 50 mM Hepes pH 7.0, 5 mM MgCl2, 10 mM MnCl2, 1 mM DTT, 1 mg/mL BSA, 1.0 μM ATP, and 0.05 μM biotin-GGGGRPRAATF-NH2 (SEQ ID NO:2) peptide substrate. CSF-1R kinase was added at final concentration of 4 nM.

PDGFRb = molecular target: T2, PDGFRb (Homo sapiens, UniProt P09619); assay: Inhibition of PDGFRb kinase in an in vitro biochemical assay (alphascreen); conditions: tested at about 1 μM; read-out: PDGFR % inhibition at 1 μM
T2 construct: The kinase domain of PDGFRβ was assayed in 50 mM Hepes; purchased Invitrogen P3082
T2 sequence (P09619 600-962 limits assumed): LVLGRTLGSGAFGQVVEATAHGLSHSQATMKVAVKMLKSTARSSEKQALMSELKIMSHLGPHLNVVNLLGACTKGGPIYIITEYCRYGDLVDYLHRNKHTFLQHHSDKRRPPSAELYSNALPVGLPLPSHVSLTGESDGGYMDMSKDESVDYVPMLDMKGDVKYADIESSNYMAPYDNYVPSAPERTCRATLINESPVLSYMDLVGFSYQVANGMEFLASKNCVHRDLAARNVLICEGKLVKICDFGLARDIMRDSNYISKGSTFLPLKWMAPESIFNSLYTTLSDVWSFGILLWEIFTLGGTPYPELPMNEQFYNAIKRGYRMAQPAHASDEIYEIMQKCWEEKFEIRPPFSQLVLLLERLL
Method: (§1) The IC50 values for the inhibition of RTKs were determined in the alphascreen format measuring the inhibition by compound of phosphate transfer to a substrate by the respective enzyme. Briefly, the respective RTK domain purchased as human recombinant protein (cKIT Upstate #14-559, PDGFRb Invitrogen #P3082) were incubated with serial dilutions of compound in the presence of substrate and ATP concentrations within 3 times the Km of the enzyme.
(§2) The kinase domain of cKIT was assayed in 50 mM Hepes, pH=7.5, 5 mM MgCl2, 10 mM MnCl2, 1 mM DTT, 0.1% BSA with 0.06 uM biotinylated peptide substrate (GGLFDDPSYVNVQNL-NH2) and 15 μM ATP (ATP KM apparent =15 μM). The kinase domain of PDGFRβ was assayed in 50 mM Hepes, pH=7.5, 20 mM MgCl2, 1 mM DTT, 0.1% BSA with 0.1 μM biotinylated peptide substrate (GGLFDDPSYVNVQNL-NH2) and 10 μM ATP (ATP KM apparent=25 μM). Reactions were incubated at room temperature for 3 to 4 hr and stopped with buffer (20 mM EDTA, 0.01% Tween-20 for both PDGFRβ and cKIT). Alphascreen PY20 beads were added to the stopped cKIT reactions and PY20 Ab/Protein A Alphascreen beads were added to the PDGFRβ stopped reactions. Both reactions were incubated overnight and read on the Alphascreen reader. The concentration of compound for 50% inhibition (IC50) was calculated employing non-linear regression using XL-Fit data analysis software. As a control compound, staurosporine is run in every assay and a Z′>0.5 is required to validate results.

cKIT = molecular target: T3, cKIT (Homo sapiens, UniProt P10721); assay: Inhibition of cKIT kinase in an in vitro biochemical assay (alphascreen); conditions: tested at about 1 μM
T3 construct: The kinase domain of cKIT was assayed in 50 mM Hepes; purchased Upstate 14-559
T3 sequence (P10721 589-937 limits assumed): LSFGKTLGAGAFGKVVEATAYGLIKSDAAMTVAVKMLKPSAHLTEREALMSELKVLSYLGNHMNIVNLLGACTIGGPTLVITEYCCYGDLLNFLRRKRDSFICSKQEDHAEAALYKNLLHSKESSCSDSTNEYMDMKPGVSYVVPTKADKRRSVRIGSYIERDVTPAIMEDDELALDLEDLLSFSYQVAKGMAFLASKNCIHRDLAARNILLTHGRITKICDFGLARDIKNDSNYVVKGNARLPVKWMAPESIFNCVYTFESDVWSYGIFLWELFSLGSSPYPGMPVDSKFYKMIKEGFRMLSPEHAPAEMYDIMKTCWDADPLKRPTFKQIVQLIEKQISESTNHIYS
Method: as §1, §2

SMILES	inhibition at 1 µM [1]	inhibition at 1 µM (PDGFRb)	inhibition at 1 µM (cKIT)
CC[C@H](C)[C@@H](CO)Nc1ncc2cc(Oc3ccnc(C(=O)NC)c3)ccc2n1 [Cmpd 14, 4-(2-((2S,3S)-1-hydroxy-3-methylpentan-2-ylamino)quinazolin-6-yloxy)-N-methylpicolinamide]	99%	15%	19%
CNC(=O)c1cc(Oc2ccc3nc(N[C@@H](C)C4CCCCC4)ncc3c2)ccn1 [Cmpd 16, (S)-4-(2-(1-cyclohexylethylamino)quinazolin-6-yloxy)-N-methylpicolinamide]	100%	26%	58%
CNC(=O)c1cc(Oc2ccc3nc(N[C@@H](CO)C4CCCCC4)ncc3c2)ccn1 [Cmpd 17, (R)-4-(2-(1-cyclohexyl-2-hydroxyethylamino)quinazolin-6-yloxy)-N-methylpicolinamide]	100%	38%	61%
CNC(=O)c1cc(Oc2ccc3nc(N[C@H](CO)C4CCCCC4)ncc3c2)ccn1 [Cmpd 18, (S)-4-(2-(1-cyclohexyl-2-hydroxyethylamino)quinazolin-6-yloxy)-N-methylpicolinamide]	99%	31%	30%
CNC(=O)c1cc(Oc2ccc3nc(N[C@@H]4c5ccccc5C[C@@H]4O)ncc3c2)ccn1 [Cmpd 19, 4-(2-((1R,2S)-2-hydroxy-2,3-dihydro-1H-inden-1-ylamino)quinazolin-6-yloxy)-N-methylpicolinamide]	100%	3%	30%
CNC(=O)c1cc(Oc2ccc3nc(N[C@H]4c5ccccc5C[C@H]4O)ncc3c2)ccn1 [Cmpd 20, 4-(2-((1S,2R)-2-hydroxy-2,3-dihydro-1H-inden-1-ylamino)quinazolin-6-yloxy)-N-methylpicolinamide]	100%	25%	60%
Cn1cc(-c2cc(Oc3ccc4nc(NCC5CCCCC5)ncc4c3)ccn2)cn1 [Cmpd 21, N-(cyclohexylmethyl)-6-(2-(1-methyl-1H-pyrazol-4-yl)pyridin-4-yloxy)quinazolin-2-amine]	100%	91%	100%
c1ccc(N2CCOCC2)c(Nc2ncc3cc(Oc4ccncc4)ccc3n2)c1 [Cmpd 28, N-(2-morpholinophenyl)-6-(pyridin-4-yloxy)quinazolin-2-amine]	52%	< 1%	8%
CNC(=O)c1cc(Oc2ccc3nc(N[C@@H]4CCCC[C@H]4O)ccc3c2)ccn1 [Example 1]	100%	33%	51%
CNC(=O)c1cc(Oc2ccc3nc(N[C@H]4CCCC[C@@H]4O)ccc3c2)ccn1 [Example 2]	100%	32%	21%
CNC(=O)c1cc(Oc2ccc3nc(N[C@@H](CO)C4CCCCC4)ccc3c2)ccn1 [Example 7]	98%	16%	31%
CNC(=O)c1cc(Oc2ccc3nc(N[C@@H]4CCCC[C@H]4O)ncc3c2)ccn1 [Example 11]	99%	21%	23%
CNC(=O)c1cc(Oc2ccc3nc(N[C@H]4CCCC[C@@H]4O)ncc3c2)ccn1 [Example 12]	100%	39%	39%
CNC(=O)c1cc(Oc2ccc3nc(N[C@H](CO)Cc4ccccc4)ncc3c2)ccn1 [Example 13]	88%	24%	28%
CNC(=O)c1cc(Oc2ccc3nc(N[C@H](C)C4CCCCC4)ncc3c2)ccn1 [Example 15, (R)-4-(2-(1-cyclohexylethylamino)quinazolin-6-yloxy)-N-methylpicolinamide]	100%	26%	50%
Nc1cc(Oc2ccc3nc(Nc4ccccc4N4CCOCC4)ncc3c2)ccn1 [Example 29, 6-(2-aminopyridin-4-yloxy)-N-(2-morpholinophenyl)quinazolin-2-amine]	90%	1%	9%
CN(C)C(=O)c1cc(Oc2ccc3nc(Nc4ccccc4N4CCOCC4)ncc3c2)ccn1 [Example 31, N,N-dimethyl-4-(2-(2-morpholinophenylamino)quinazolin-6-yloxy)picolinamide]	67%	< 1%	8%
CC(=O)Nc1cc(Oc2ccc3nc(Nc4ccccc4N4CCOCC4)ncc3c2)ccn1 [Example 32, N-(4-(2-(2-morpholinophenylamino)quinazolin-6-yloxy)pyridin-2-yl)acetamide]	99%	< 1%	7%
NC(=O)c1cc(Oc2ccc3nc(Nc4ccccc4N4CCOCC4)ncc3c2)ccn1 [Example 33, 4-(2-(2-morpholinophenylamino)quinazolin-6-yloxy)picolinamide]	84%	< 1%	14%
CCNC(=O)c1cc(Oc2ccc3nc(Nc4ccccc4N4CCOCC4)ncc3c2)ccn1 [Example 34, N-ethyl-4-(2-(2-morpholinophenylamino)quinazolin-6-yloxy)picolinamide]	80%	2%	14%
CNC(=O)c1cc(Oc2ccc3nc(NCCN4CCOCC4)ncc3c2)ccn1 [Example 35, N-methyl-4-(2-(2-morpholinoethylamino)quinazolin-6-yloxy)picolinamide]	71%	< 1%	7%
CNC(=O)c1cc(Oc2ccc3nc(NCC4(N5CCOCC5)CCCCC4)ncc3c2)ccn1 [Example 37, N-methyl-4-(2-((1-morpholinocyclohexyl)methylamino)quinazolin-6-yloxy)picolinamide]	99%	< 1%	16%
CNC(=O)c1cc(Oc2ccc3nc(N[C@H](C)c4ccccc4)ncc3c2)ccn1 [Example 38, (R)-N-methyl-4-(2-(1-phenylethylamino)quinazolin-6-yloxy)picolinamide]	99%	46%	92%
CNC(=O)c1cc(Oc2ccc3nc(NCC4CCCCC4)ncc3c2)ccn1 [Example 39, 4-(2-(cyclohexylmethylamino)quinazolin-6-yloxy)-N-methylpicolinamide]	99%	52%	10%
